Source: PubChem BioAssay AID220 (DTP/NCI, 2004)
Values joined by “and” are separate entries in the source; they are usually repeats but may differ in a detail not shown here. Equal values may be shown once. Records with an inconclusive call do not appear.

Test system: CD8F1 mice, subcutaneous mammary adenocarcinoma, T/C%
Experiment: NCI In Vivo Anticancer Drug Screen. Data for tumor model Mammary Adenocarcinoma CD8F1 (subcutaneous) in CD8F1
Details: higher = larger tumour
Experimental: The antitumor activity of compounds was measured in mice bearing transplantable tumors. Survival or tumor size were measured and the results are expressed as the measurement made in the treated group (T) divided by the measurement made in the vehicle treated control group (C). The tumor model used in this assay is Mammary Adenocarcinoma CD8F1 (subcutaneous) in CD8F1

[1] = endpoint: median tumor weight change, dose: 1000.0 mg/kg/injection, schedule: Q01DX001 (ip), vehicle: saline
[2] = endpoint: median tumor weight change, dose: 125.0 mg/kg/injection, schedule: Q01DX001 (ip), vehicle: saline
[3] = endpoint: median tumor weight (est.), dose: 50.0 mg/kg/injection, schedule: Q07DX005 (ip), vehicle: Klucel (hydroxypropylcellulose) (HPC)
[4] = endpoint: median tumor weight (est.), dose: 100.0 mg/kg/injection, schedule: Q07DX005 (ip), vehicle: Klucel (hydroxypropylcellulose) (HPC)

`CCOc1cc2c(cc1C(C)c1ccc(OC)cc1)OCO2` (configuration not stated) was tested, and the T/C (endpoint: median tumor weight change, dose: 62.5 mg/kg/injection, schedule: Q01DX001 (ip), vehicle: distilled water + alcohol) was 102 % of control, the T/C (endpoint: median tumor weight change, dose: 125.0 mg/kg/injection, schedule: Q01DX001 (ip), vehicle: distilled water + alcohol) was 62 % of control and the T/C (endpoint: median tumor weight change, dose: 250.0 mg/kg/injection, schedule: Q01DX001 (ip), vehicle: distilled water + alcohol) was 67 % of control. For the same molecule, the T/C (endpoint: median tumor weight change, dose: 500.0 mg/kg/injection, schedule: Q01DX001 (ip), vehicle: distilled water + alcohol) was 91 % of control.
With `O=c1ncccn1[C@@H]1O[C@H](CO)[C@H](O)C1O` (some centres not stated) the T/C [1] was 78 % of control and 89 % of control and the T/C (endpoint: median tumor weight change, dose: 2000.0 mg/kg/injection, schedule: Q01DX001 (ip), vehicle: saline) was 95 % of control and 103 % of control.
For `NNC(=O)c1ccncc1`, the T/C (endpoint: median tumor weight change, dose: 62.0 mg/kg/injection, schedule: Q01DX001 (ip), vehicle: saline) was 78 % of control and the T/C [2] was 70 % of control.
In the case of `O=[N+]([O-])c1ccc(N2CCOCC2)c2c1no[n+]2[O-]`, the T/C (endpoint: median tumor weight change, dose: 62.5 mg/kg/injection, schedule: Q01DX001 (ip), vehicle: saline with Tween-80) was 100 % of control, the T/C (endpoint: median tumor weight change, dose: 125.0 mg/kg/injection, schedule: Q01DX001 (ip), vehicle: saline with Tween-80) was 114 % of control and the T/C (endpoint: median tumor weight change, dose: 250.0 mg/kg/injection, schedule: Q01DX001 (ip), vehicle: saline with Tween-80) was 43 % of control. For the same molecule, the T/C (endpoint: median tumor weight change, dose: 500.0 mg/kg/injection, schedule: Q01DX001 (ip), vehicle: saline with Tween-80) was 56 % of control.
`Cc1cc(=O)n2c3c(c4c(cc13)c(CN(C)C)cc(=O)n4C)OC2` was tested, and the T/C (endpoint: median tumor weight change, dose: 62.0 mg/kg/injection, schedule: Q01DX001 (ip), vehicle: saline with Tween-80) was 190 % of control.
In the case of `CC(=O)[C@H]1CC[C@H]2[C@@H]3C[C@H](C)C4=CC(=O)CC[C@]4(C)[C@H]3C(=O)C[C@]12C`, the T/C (endpoint: mean tumor weight (est.), dose: 200.0 mg/kg/injection, schedule: Q07DX003 (ip), vehicle: saline) was 67 % of control, the T/C (endpoint: mean tumor weight (est.), dose: 400.0 mg/kg/injection, schedule: Q07DX003 (ip), vehicle: saline) was 61 % of control and the T/C (endpoint: mean tumor weight (est.), dose: 800.0 mg/kg/injection, schedule: Q07DX003 (ip), vehicle: saline) was 86 % of control. The T/C (endpoint: mean tumor weight, dose: 200.0 mg/kg/injection, schedule: Q07DX005 (ip), vehicle: saline) was 107 % of control, the T/C (endpoint: mean tumor weight, dose: 200.0 mg/kg/injection, schedule: Q07DX006 (ip), vehicle: saline) was 63 % of control and the T/C (endpoint: mean tumor weight, dose: 200.0 mg/kg/injection, schedule: Q07DX007 (ip), vehicle: saline) was 90 % of control. For the same molecule, the T/C (endpoint: mean tumor weight, dose: 400.0 mg/kg/injection, schedule: Q07DX005 (ip), vehicle: saline) was 54 % of control, the T/C (endpoint: mean tumor weight, dose: 400.0 mg/kg/injection, schedule: Q07DX006 (ip), vehicle: saline) was 39 % of control and the T/C (endpoint: mean tumor weight, dose: 400.0 mg/kg/injection, schedule: Q07DX007 (ip), vehicle: saline) was 25 % of control. The T/C (endpoint: mean tumor weight, dose: 800.0 mg/kg/injection, schedule: Q07DX005 (ip), vehicle: saline) was 36 % of control and the T/C (endpoint: mean tumor weight, dose: 800.0 mg/kg/injection, schedule: Q07DX007 (ip), vehicle: saline) was 49 % of control.
In the case of `Nc1nc(/C=C(/O)c2ccccc2)c2ncn(C3OC(CO)C(O)C3O)c2n1` (configuration not stated), the T/C (endpoint: median tumor weight change, dose: 50.0 mg/kg/injection, schedule: Q01DX001 (ip), vehicle: distilled water + Tween-80) was 91 % of control.
With `C[Si](C)(C)O/C=C1/CCOC1=O` the T/C [2] was 96 % of control, the T/C (endpoint: median tumor weight change, dose: 500.0 mg/kg/injection, schedule: Q01DX001 (ip), vehicle: saline) was 82 % of control and the T/C [1] was 72 % of control.
With `CC1=CC(=Nc2ccc(N(CCCl)CCCl)cc2)C=C(C)C1=O` the T/C (endpoint: median tumor weight (est.), dose: 6.25 mg/kg/injection, schedule: Q07DX005 (ip), vehicle: Klucel (hydroxypropylcellulose) (HPC)) was 61 % of control and 69 % of control, the T/C [3] was 32 % of control and 44 % of control and the T/C [4] was 45 % of control.
For `[Cl][Hg][Cl]`, the T/C (endpoint: median tumor weight change, dose: 1.56 mg/kg/injection, schedule: Q01DX001 (ip), vehicle: saline) was 87 % of control and the T/C (endpoint: median tumor weight change, dose: 3.12 mg/kg/injection, schedule: Q01DX001 (ip), vehicle: saline) was 71 % of control.
In the case of `CC(C)(Oc1ccc(-c2cccc3ccccc23)cc1)C(=O)O`, the T/C (endpoint: median tumor weight (est.), dose: 25.0 mg/kg/injection, schedule: Q07DX005 (ip), vehicle: Klucel (hydroxypropylcellulose) (HPC)) was 48 % of control, the T/C [3] was 52 % of control and the T/C [4] was 57 % of control. For the same molecule, the T/C (endpoint: median tumor weight (est.), dose: 200.0 mg/kg/injection, schedule: Q07DX005 (ip), vehicle: Klucel (hydroxypropylcellulose) (HPC)) was 79 % of control and the T/C (endpoint: median tumor weight (est.), dose: 400.0 mg/kg/injection, schedule: Q07DX005 (ip), vehicle: Klucel (hydroxypropylcellulose) (HPC)) was 39 % of control.
With `CCCCCCCCCCCCN1C(C)=CS/C1=C\C=C\c1scc(C)[n+]1CCCCCCCCCCCC` the T/C (endpoint: median tumor weight change, dose: 7.82 mg/kg/injection, schedule: Q01DX001 (ip), vehicle: saline with Tween-80) was 80 % of control, the T/C (endpoint: median tumor weight change, dose: 15.63 mg/kg/injection, schedule: Q01DX001 (ip), vehicle: saline with Tween-80) was 92 % of control and the T/C (endpoint: median tumor weight change, dose: 31.25 mg/kg/injection, schedule: Q01DX001 (ip), vehicle: saline with Tween-80) was 65 % of control.
`CCOC(=O)[C@]1(Br)CC[C@@]1(Br)C(=O)OCC` was tested, and the T/C (endpoint: median tumor weight (est.), dose: 12.5 mg/kg/injection, schedule: Q07DX005 (ip), vehicle: saline with Tween-80) was 117 % of control, the T/C (endpoint: median tumor weight (est.), dose: 25.0 mg/kg/injection, schedule: Q07DX005 (ip), vehicle: saline with Tween-80) was 102 % of control and the T/C (endpoint: median tumor weight (est.), dose: 50.0 mg/kg/injection, schedule: Q07DX005 (ip), vehicle: saline with Tween-80) was 95 % of control. For the same molecule, the T/C (endpoint: median tumor weight (est.), dose: 100.0 mg/kg/injection, schedule: Q07DX005 (ip), vehicle: saline with Tween-80) was 112 % of control, the T/C (endpoint: median tumor weight (est.), dose: 200.0 mg/kg/injection, schedule: Q07DX005 (ip), vehicle: saline with Tween-80) was 95 % of control and the T/C (endpoint: median tumor weight (est.), dose: 400.0 mg/kg/injection, schedule: Q07DX005 (ip), vehicle: saline with Tween-80) was 105 % of control.
